Laboratory results reported in ChEMBL document CHEMBL1759914, “The solvolysis of topotecan in alcohols and acetic anhydride” (Bioorg Med Chem Lett, 2011).

Tests used:
KB = test: Antitumor activity against human KB cells by WST-1 assay; assay type: functional, cell-based
HepG2 = test: Antitumor activity against human HepG2 cells by WST-1 assay; assay type: functional, cell-based
[1] = Antitumor activity against mouse C26 cells by WST-1 assay; assay type: functional, cell-based
[2] = Ratio of compound IC50 to 10-hydroxycamptothecin IC50 for mouse C26 cells; assay type: functional

Compound	IC50 (KB) [nM]	IC50 (HepG2) [nM]	IC50 [1] [nM]	Ratio IC50 [2]
CC[C@@]1(O)C(=O)OCc2c1cc1n(c2=O)Cc2cc3c(COC(C)(C)C)c(O)ccc3nc2-1	1380	802	273	
CC[C@@]1(OC(C)=O)C(=O)OCc2c1cc1n(c2=O)Cc2cc3c(COC(C)=O)c(OC(C)=O)ccc3nc2-1	1150	1310	424	
CC[C@@]1(O)C(=O)OCc2c1cc1n(c2=O)Cc2cc3c(COC)c(O)ccc3nc2-1	25400	92100	101000	
CC[C@@]1(O)C(=O)OCc2c1cc1n(c2=O)Cc2cc3c(COC(C)=O)c(OC(C)=O)ccc3nc2-1	794	1000	157	3
CC[C@@]1(O)C(=O)OCc2c1cc1n(c2=O)Cc2cc3cc(O)ccc3nc2-1 [HYDROXYCAMPTOTHECIN]	829	981	496	
CCOCc1c(O)ccc2nc3c(cc12)Cn1c-3cc2c(c1=O)COC(=O)[C@]2(O)CC	19700	3910	29100	
CC[C@@]1(O)C(=O)OCc2c1cc1n(c2=O)Cc2cc3c(COC(C)C)c(O)ccc3nc2-1	7250	13500	3880	
